Data on two compounds can be found in ChEMBL document CHEMBL5303766, “Data for DCP probe FHT-2344” (2022).

Assay [1] concerns the target T1, Serine/threonine-protein kinase 17B (Homo sapiens) (UniProt O94768).
T1 sequence (whole entry): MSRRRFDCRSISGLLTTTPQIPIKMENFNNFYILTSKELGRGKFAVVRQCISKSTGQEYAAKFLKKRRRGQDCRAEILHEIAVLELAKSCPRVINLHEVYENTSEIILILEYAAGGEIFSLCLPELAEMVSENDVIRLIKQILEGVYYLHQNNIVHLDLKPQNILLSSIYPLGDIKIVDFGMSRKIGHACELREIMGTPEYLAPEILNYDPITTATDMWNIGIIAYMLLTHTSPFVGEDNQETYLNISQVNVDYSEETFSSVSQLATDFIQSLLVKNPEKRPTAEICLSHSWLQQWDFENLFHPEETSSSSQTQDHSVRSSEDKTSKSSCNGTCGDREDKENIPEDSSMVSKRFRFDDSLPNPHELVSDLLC
The experiment in a line: STK17B SGC Tm panel (DSF). To be noted: for ΔTm: Compound concentration 10.0 uM.

Assay [2] deals with Serine/threonine-protein kinase Nek7 (Homo sapiens) (UniProt Q8TDX7). In words: NEK7 SGC Tm panel (DSF). Conditions: for ΔTm: Compound concentration 10.0 uM.
Sequence of Serine/threonine-protein kinase Nek7 (Homo sapiens) (Q8TDX7 whole entry, looked up): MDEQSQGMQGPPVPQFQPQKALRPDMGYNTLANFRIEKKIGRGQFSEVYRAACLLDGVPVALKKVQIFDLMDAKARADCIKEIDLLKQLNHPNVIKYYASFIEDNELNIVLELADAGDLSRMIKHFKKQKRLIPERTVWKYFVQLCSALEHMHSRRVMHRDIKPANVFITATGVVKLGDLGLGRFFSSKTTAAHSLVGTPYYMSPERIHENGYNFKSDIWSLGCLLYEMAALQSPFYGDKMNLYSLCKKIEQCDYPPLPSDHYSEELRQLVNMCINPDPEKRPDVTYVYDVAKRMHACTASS
Assay [3] has as its target Histamine H2 receptor (Homo sapiens) (UniProt P25021). To be noted: Compound concentration 10.0 uM.
Assay [4] has as its target Serine/threonine-protein kinase 24 (Homo sapiens) (UniProt Q9Y6E0). The experiment in a line: MST3 SGC Tm panel (DSF). Conditions: for ΔTm: Compound concentration 10.0 uM.
Assay [5] is filed under the species Rattus norvegicus. Conditions: Compound concentration 10.0 uM.
For assay [6], the target named is SWI/SNF-related matrix-associated actin-dependent regulator of chromatin subfamily A member 2 (Homo sapiens, UniProt P51531). The experiment in a line: Measurement of the ATPase catalytic activity using the ADP-Glo detection (SMARCA2). Type of assay: functional. For orientation: In ADP-Glo the light output rises with the ADP produced.
Assay [7] addresses 5-hydroxytryptamine receptor 3A (Homo sapiens) (UniProt P46098). To be noted: Compound concentration 10.0 uM.
Assay [8] has as its target Alpha-2B adrenergic receptor (Homo sapiens) (UniProt P18089). To be noted: Compound concentration 10.0 uM.
Assay [9] has as its target SWI/SNF-related matrix-associated actin-dependent regulator of chromatin subfamily A member 4 (Homo sapiens, UniProt P51532). In words: Luciferase reporter assay: SMARCA4 transcriptional activity in a SMARCA2-mutant cell line. Type of assay: functional. (In general: Reporter assays use an easily measured gene product as a stand-in for the process of interest.)
The target of assay [10] is T2, Peregrin (Homo sapiens) (UniProt P55201).
T2 sequence (whole entry): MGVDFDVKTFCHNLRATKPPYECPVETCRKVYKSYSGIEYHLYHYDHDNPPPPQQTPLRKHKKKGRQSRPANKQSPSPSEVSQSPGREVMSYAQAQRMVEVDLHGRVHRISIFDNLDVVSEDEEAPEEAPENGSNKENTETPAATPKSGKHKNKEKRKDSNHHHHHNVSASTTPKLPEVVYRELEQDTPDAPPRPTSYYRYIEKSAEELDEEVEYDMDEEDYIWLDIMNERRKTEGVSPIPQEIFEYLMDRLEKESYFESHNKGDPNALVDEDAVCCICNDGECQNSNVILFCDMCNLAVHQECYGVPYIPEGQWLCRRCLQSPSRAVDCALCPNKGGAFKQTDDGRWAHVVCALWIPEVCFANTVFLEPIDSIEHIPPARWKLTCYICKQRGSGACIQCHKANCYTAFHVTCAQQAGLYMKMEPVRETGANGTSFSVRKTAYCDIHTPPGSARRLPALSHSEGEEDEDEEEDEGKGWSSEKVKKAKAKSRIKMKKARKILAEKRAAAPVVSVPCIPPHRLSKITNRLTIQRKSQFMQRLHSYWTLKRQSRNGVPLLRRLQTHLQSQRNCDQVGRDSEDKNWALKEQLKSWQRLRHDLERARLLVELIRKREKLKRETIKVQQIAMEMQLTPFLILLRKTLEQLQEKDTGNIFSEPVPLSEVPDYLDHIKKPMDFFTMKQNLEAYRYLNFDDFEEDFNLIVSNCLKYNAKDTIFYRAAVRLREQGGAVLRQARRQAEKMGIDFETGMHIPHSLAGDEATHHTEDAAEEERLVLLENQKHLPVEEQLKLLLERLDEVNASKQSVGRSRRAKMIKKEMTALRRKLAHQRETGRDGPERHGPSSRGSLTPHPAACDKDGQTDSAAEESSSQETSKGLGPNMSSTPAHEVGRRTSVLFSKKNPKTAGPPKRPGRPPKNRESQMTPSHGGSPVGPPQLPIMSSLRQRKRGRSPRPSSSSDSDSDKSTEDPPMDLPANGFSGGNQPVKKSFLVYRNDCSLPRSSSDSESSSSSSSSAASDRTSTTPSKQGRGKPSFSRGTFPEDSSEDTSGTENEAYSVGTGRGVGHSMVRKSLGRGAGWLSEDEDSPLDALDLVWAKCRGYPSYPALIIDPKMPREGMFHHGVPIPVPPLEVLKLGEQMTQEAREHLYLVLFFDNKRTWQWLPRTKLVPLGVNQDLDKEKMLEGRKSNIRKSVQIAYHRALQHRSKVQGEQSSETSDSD
In words: BRPF1 SGC Tm panel (DSF). To be noted: for ΔTm: Compound concentration 10.0 uM.

Assay [11] concerns the target STE20-like serine/threonine-protein kinase (Homo sapiens) (UniProt Q9H2G2). The experiment in a line: SLK SGC Tm panel (DSF). Conditions: for ΔTm: Compound concentration 10.0 uM.
The target in assay [12] is Calcium/calmodulin-dependent protein kinase type 1D (Homo sapiens) (UniProt Q8IU85). The experiment in a line: CAMK1D SGC Tm panel (DSF). To be noted: for ΔTm: Compound concentration 10.0 uM.
Sequence of Calcium/calmodulin-dependent protein kinase type 1D (Homo sapiens) (Q8IU85 whole entry, looked up): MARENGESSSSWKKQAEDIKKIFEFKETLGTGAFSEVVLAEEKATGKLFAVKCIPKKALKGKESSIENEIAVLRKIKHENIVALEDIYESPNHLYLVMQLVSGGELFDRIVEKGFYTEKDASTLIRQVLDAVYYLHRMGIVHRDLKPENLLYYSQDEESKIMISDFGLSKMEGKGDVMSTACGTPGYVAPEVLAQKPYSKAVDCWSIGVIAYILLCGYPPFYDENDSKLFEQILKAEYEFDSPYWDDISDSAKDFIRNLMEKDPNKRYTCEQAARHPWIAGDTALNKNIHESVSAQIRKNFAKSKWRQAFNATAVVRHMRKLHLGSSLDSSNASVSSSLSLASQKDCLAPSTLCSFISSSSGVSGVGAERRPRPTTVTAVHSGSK
In assay [13] the target is Death-associated protein kinase 3 (Homo sapiens) (UniProt O43293). In words: DAPK3 SGC Tm panel (DSF). Conditions: for ΔTm: Compound concentration 10.0 uM.
Sequence of Death-associated protein kinase 3 (Homo sapiens) (O43293 whole entry, looked up): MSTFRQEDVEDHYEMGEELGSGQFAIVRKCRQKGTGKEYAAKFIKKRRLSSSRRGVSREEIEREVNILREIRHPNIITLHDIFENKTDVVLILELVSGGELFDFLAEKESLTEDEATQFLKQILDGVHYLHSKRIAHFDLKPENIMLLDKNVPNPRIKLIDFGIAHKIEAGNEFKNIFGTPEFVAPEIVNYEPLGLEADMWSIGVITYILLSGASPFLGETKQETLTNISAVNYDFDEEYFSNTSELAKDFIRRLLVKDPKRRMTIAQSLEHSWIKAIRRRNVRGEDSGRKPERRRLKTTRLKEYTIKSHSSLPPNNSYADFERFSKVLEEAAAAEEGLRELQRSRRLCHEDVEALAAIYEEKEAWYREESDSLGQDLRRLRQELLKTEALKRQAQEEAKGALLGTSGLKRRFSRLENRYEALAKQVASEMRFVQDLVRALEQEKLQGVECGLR

The structures appear in SMILES notation. Activity calls are given as the source filed them. The rule behind the calls is not given here.

Sequence of STE20-like serine/threonine-protein kinase (Homo sapiens) (Q9H2G2 whole entry, looked up): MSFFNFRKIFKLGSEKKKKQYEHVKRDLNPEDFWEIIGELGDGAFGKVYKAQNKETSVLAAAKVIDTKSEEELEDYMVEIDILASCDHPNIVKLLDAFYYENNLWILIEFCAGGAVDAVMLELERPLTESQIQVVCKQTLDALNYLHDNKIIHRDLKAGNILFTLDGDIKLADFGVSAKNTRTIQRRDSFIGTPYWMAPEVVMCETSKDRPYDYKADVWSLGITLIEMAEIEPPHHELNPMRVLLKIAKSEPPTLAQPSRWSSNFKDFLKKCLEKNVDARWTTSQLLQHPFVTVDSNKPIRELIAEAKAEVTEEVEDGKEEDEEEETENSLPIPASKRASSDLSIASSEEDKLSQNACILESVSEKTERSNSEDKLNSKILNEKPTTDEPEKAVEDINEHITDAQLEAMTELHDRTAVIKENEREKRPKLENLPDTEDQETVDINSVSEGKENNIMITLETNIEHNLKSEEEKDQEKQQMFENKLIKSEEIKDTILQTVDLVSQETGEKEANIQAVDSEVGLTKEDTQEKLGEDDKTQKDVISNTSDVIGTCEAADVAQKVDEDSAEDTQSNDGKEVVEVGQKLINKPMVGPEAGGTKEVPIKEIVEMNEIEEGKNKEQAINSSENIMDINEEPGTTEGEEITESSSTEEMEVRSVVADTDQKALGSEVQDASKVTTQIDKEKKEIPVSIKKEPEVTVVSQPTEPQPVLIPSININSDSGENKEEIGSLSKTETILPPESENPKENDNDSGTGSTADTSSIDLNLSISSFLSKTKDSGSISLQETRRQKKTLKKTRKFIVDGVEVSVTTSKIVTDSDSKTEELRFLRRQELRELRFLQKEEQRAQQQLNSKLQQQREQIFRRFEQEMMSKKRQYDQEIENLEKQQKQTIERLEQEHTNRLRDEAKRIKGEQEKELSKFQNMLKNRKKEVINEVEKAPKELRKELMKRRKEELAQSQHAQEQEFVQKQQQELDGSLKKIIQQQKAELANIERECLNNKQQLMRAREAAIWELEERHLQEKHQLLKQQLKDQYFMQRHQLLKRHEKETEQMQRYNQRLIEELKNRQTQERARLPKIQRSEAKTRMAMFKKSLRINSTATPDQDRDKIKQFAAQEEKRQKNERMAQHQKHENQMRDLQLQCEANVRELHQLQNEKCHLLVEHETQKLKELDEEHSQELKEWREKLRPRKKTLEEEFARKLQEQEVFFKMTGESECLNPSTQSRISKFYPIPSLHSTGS
Sequence of Serine/threonine-protein kinase 24 (Homo sapiens) (Q9Y6E0 whole entry, looked up): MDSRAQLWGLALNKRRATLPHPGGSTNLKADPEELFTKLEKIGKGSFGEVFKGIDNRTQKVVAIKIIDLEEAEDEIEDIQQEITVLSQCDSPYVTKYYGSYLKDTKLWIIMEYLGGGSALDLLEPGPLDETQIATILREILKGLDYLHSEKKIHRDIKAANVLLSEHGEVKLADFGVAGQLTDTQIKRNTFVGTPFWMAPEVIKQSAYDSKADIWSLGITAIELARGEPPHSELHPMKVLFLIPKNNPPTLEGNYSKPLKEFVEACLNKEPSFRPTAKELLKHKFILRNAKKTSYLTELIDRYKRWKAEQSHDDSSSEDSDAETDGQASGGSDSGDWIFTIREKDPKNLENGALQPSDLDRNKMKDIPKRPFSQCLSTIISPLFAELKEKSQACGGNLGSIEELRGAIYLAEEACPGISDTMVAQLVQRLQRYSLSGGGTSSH
Sequence of 5-hydroxytryptamine receptor 3A (Homo sapiens) (P46098 whole entry): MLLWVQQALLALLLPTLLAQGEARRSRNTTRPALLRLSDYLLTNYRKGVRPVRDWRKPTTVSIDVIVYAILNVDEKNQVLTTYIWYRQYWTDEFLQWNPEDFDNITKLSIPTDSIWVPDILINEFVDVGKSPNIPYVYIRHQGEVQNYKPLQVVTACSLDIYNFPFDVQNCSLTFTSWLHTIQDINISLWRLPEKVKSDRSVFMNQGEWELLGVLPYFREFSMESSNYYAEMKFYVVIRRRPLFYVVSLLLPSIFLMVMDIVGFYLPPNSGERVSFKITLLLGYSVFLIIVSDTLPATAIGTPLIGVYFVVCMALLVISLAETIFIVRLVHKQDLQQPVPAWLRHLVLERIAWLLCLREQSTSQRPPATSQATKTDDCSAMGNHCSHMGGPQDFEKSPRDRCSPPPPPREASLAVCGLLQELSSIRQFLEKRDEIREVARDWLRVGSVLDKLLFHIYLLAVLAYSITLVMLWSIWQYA
Sequence of SWI/SNF-related matrix-associated actin-dependent regulator of chromatin subfamily A member 4 (P51532 whole entry, looked up, change not shown): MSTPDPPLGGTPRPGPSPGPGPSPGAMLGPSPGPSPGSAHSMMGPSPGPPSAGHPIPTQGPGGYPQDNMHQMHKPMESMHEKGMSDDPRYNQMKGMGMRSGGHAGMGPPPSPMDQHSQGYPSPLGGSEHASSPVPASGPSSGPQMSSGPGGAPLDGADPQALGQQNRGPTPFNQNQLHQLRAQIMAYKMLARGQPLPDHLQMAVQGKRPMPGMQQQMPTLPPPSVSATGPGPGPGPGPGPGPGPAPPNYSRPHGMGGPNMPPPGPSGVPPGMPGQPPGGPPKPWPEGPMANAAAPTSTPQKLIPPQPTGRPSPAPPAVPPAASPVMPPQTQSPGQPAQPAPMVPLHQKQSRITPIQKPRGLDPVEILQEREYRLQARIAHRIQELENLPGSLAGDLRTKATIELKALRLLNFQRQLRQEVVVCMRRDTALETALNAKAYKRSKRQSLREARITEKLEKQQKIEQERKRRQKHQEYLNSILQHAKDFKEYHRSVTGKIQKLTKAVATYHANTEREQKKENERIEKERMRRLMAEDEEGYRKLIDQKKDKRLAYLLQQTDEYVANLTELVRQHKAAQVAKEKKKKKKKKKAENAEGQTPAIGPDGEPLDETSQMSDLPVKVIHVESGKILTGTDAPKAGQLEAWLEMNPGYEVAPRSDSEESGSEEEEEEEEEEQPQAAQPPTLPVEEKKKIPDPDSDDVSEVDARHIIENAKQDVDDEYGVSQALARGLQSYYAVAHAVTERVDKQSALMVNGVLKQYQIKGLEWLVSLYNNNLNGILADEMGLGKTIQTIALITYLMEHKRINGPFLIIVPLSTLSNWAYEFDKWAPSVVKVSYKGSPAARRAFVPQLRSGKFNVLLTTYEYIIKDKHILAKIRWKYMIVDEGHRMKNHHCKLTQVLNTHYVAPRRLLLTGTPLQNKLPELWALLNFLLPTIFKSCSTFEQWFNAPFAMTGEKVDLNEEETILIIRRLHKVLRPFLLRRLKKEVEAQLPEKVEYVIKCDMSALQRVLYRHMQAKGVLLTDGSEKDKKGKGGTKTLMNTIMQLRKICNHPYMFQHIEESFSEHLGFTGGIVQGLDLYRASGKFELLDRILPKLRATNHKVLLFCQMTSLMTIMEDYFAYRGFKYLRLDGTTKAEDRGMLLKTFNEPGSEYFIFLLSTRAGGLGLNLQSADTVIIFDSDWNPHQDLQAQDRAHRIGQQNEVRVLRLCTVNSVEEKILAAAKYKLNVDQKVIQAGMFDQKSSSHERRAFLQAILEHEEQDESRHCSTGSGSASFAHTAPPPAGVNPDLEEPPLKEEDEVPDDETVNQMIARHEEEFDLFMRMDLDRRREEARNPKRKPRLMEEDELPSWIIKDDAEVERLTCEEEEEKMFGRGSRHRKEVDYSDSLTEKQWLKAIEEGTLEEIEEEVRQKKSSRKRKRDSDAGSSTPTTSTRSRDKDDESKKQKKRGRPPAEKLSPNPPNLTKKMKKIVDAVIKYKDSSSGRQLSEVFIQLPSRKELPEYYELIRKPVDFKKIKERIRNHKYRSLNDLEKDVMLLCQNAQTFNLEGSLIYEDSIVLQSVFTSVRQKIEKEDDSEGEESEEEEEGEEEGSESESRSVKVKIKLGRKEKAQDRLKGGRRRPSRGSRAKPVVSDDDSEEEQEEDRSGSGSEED

`C[C@H](NC(=O)c1cn(C2(C#N)CC2)cn1)C(=O)Nc1nc(-c2cccc(-c3ccn(C)n3)c2)cs1`: the delta Tm Staurosporine positive control was 10 in assay [1]; 1.29 in assay [2]; 6.74 in assay [4]; -0.0506 in assay [10]; 12.2 in assay [11]; 10.8 in [12]. The delta Tm Staurosporine positive control in assay [13] amounted to 16.2. The ΔTm is -12.2 in assay [1]; 0.0219 in assay [2]; -1.99 in [4]; -1.18 in assay [10]; 0.23 in assay [11]; 0.455 in assay [12]. The ΔTm in assay [13] was -1.05. Besides, the inhibition (usually how much of the control response was suppressed) in assay [3] was 4.24%; in assay [5] it was 64.6%; in [7], 3.44%; in [8], 14.6%. Moreover, the IC50 (usually the concentration needed to halve the response being measured) in assay [6] was 1880 nM (not active); in assay [9], 2370 nM (not active).
As to `COC[C@H](NC(=O)c1ccn(S(C)(=O)=O)c1)C(=O)Nc1nc(-c2cccc(-c3ccn(C)n3)c2)cs1`, the delta Tm Staurosporine positive control in assay [1] is 10; in assay [2] it was 1.29; in [4] it was 6.74; in assay [10], -0.0506; in [11] it was 12.2; in assay [12], 10.8. Also, the delta Tm Staurosporine positive control in assay [13] is 16.2. Also, the ΔTm is -0.114 in assay [1]; 0.0604 in assay [2]; -5.55 in assay [4]; -1.23 in [10]; 1.33 in [11]; 0.174 in assay [12]. Moreover, the ΔTm in assay [13] is -1.53. Moreover, the inhibition was 22.6% in assay [3], 47.5% in assay [5], 5.62% in assay [7] and 6.88% in assay [8]. For the same compound, the results for the IC50 in assay [6] and in assay [9] were 13.8 nM (active) and 30.2 nM (active), respectively.
